Assay results taken from ChEMBL document CHEMBL4814080, “Design, Synthesis, and Biological Evaluation of Novel 1,3-Oxazole Sulfonamides as Tubulin Polymerization Inhibitors” (ACS Med Chem Lett, 2021).
Activity calls are given as the source filed them. No cut-off for these calls is given here.

Legend:
[1] = test system: Panel NCI-60 (60 carcinoma cell lines); assay: Cytotoxicity against human Panel NCI-60 (60 carcinoma cell lines) assessed as cell growth at 10 uM after 48 hrs by sulforhodamine B assay relative to control; assay type: functional; conditions: read-out: Activity
[2] = test system: Panel NCI-60 (60 carcinoma cell lines); assay: Cytotoxicity against human Panel NCI-60 (60 carcinoma cell lines) assessed as cell growth inhibition measured after 48 hrs by sulforhodamine B assay; assay type: functional
leukaemia cell line = assay: Cytotoxicity against human leukaemia cell line assessed as cell growth inhibition measured after 48 hrs by sulforhodamine B assay; assay type: functional; conditions: for CC50: read-out: LC50 (the source's name)
Sus scrofa = organism: Sus scrofa; assay: (§1) Inhibition of porcine brain tubulin polymerization incubated for 60 mins by spectrophotometry; assay type: tissue-based
[3] = as §1; assay type: tissue-based, Sus scrofa
NCI/ADR-RES = assay: Cytotoxicity against human NCI/ADR-RES cells assessed as cell growth at 10 uM after 48 hrs by sulforhodamine B assay relative to control; assay type: functional; conditions: read-out: Activity
SK-OV-3 = assay: Cytotoxicity against human SK-OV-3 cells assessed as cell growth at 10 uM after 48 hrs by sulforhodamine B assay relative to control; assay type: functional; conditions: read-out: Activity
MOLT-4 = assay: Cytotoxicity against human MOLT-4 cells assessed as cell growth at 10 uM after 48 hrs by sulforhodamine B assay relative to control; assay type: functional; conditions: read-out: Activity
COLO 205 = assay: Cytotoxicity against human COLO 205 cells assessed as cell growth at 10 uM after 48 hrs by sulforhodamine B assay relative to control; assay type: functional; conditions: read-out: Activity
SR = assay: Cytotoxicity against human SR cells assessed as cell growth at 10 uM after 48 hrs by sulforhodamine B assay relative to control; assay type: functional; conditions: read-out: Activity
TK-10 = assay: Cytotoxicity against human TK-10 cells assessed as cell growth at 10 uM after 48 hrs by sulforhodamine B assay relative to control; assay type: functional; conditions: read-out: Activity

SMILES | growth at 10 µM [1] [%] | GI50 (leukaemia cell line) [µM] | TGI (leukaemia cell line) [µM] | CC50 (leukaemia cell line) [µM] | further results
COc1ccc(NS(=O)(=O)c2ccc(-c3cnc(C4CC4)o3)cc2)cc1Cl | 32.6 |  |  |  | 
CN(c1ccc(F)cc1)S(=O)(=O)c1ccc(-c2cnc(C3CC3)o2)cc1 | 31.8 |  |  |  | GI50 [2]: 1.18 µM
O=S(=O)(Nc1ccc(Cl)c(F)c1)c1ccc(-c2cnc(C3CC3)o2)cc1 | 23.8 | 0.38 | 63 | > 100 | 
CN(c1ccc(Cl)cc1)S(=O)(=O)c1ccc(-c2cnc(C3CC3)o2)cc1 | 30.6 |  |  |  | 
Cc1cc(F)cc(NS(=O)(=O)c2ccc(-c3cnc(C4CC4)o3)cc2)c1 | 28.1 | 0.138 | 7.25 | 78 | 
O=S(=O)(Nc1ccc2c(c1)OCO2)c1ccc(-c2cnc(C3CC3)o2)cc1 | 35.8 |  |  |  | 
O=S(=O)(Nc1ccc(F)cc1F)c1ccc(-c2cnc(C3CC3)o2)cc1 | 29.1 | 0.356 | 66 | > 100 | 
CC(=O)O[C@H]1C(=O)[C@@]2(C)[C@H]([C@H](OC(=O)c3ccccc3)[C@]3(O)C[C@H](OC(=O)[C@H](O)[C@@H](NC(=O)c4ccccc4)c4ccccc4)C(C)=C1C3(C)C)[C@]1(OC(C)=O)CO[C@@H]1C[C@@H]2O |  |  |  |  | inhibition (Sus scrofa): inactive
COc1cc(NS(=O)(=O)c2ccc(-c3cnc(C4CC4)o3)cc2)ccc1F | 25.9 | 0.328 | 75.7 | > 100 | 
O=S(=O)(Nc1ccc(F)c(Cl)c1)c1ccc(-c2cnc(C3CC3)o2)cc1 | 23 | 0.26 | 73.7 | > 100 | 
O=S(=O)(Nc1ccc(Br)c(Cl)c1)c1ccc(-c2cnc(C3CC3)o2)cc1 | 21.5 | 0.491 | 70.3 | > 100 | IC50 [3]: < 0.08 µM
O=S(=O)(Nc1ccc(C(F)(F)F)c(Cl)c1)c1ccc(-c2cnc(C3CC3)o2)cc1 | 77.1 |  |  |  | 
O=S(=O)(Nc1cc(Cl)cc(Cl)c1)c1ccc(-c2cnc(C3CC3)o2)cc1 | 36.9 |  |  |  | 
N#Cc1ccc(NS(=O)(=O)c2ccc(-c3cnc(C4CC4)o3)cc2)cc1 | 95.7 |  |  |  | 
CC(=O)c1ccc(NS(=O)(=O)c2ccc(-c3cnc(C4CC4)o3)cc2)cc1 | 93.5 |  |  |  | 
Cc1cc(NS(=O)(=O)c2ccc(-c3cnc(C4CC4)o3)cc2)ccc1I | 35.9 |  |  |  | 
O=S(=O)(Nc1ccc(I)cc1F)c1ccc(-c2cnc(C3CC3)o2)cc1 | 49.8 |  |  |  | 
O=S(=O)(Nc1cccc2ccccc12)c1ccc(-c2cnc(C3CC3)o2)cc1 | 28.6 | 0.0447 | 22.5 | > 100 | 
Cc1ccc(Cl)c(NS(=O)(=O)c2ccc(-c3cnc(C4CC4)o3)cc2)c1 | 25.3 | 0.0488 | 52.8 | > 100 | 
O=S(=O)(Nc1ccc(Cl)cc1)c1ccc(-c2cnc(C3CC3)o2)cc1 | 24.3 |  |  |  | growth at 10 µM (NCI/ADR-RES): 4.4%; GI50 [2]: 1.43 µM; LC50 (concentration causing 50% net cell kill) [2]: 57.4 µM; growth at 10 µM (SK-OV-3): 30.2%; growth at 10 µM (MOLT-4): 14.2%; growth at 10 µM (COLO 205): 9%; growth at 10 µM (SR): 9.9%; growth at 10 µM (TK-10): 54.2%
O=C1COCCN1c1ccc(NS(=O)(=O)c2ccc(-c3cnc(C4CC4)o3)cc2)cc1 | 96.7 |  |  |  | 
O=S(=O)(Nc1ccc(N2CCOCC2)c(F)c1)c1ccc(-c2cnc(C3CC3)o2)cc1 | 92.2 |  |  |  | 
CS(=O)(=O)CCNS(=O)(=O)c1ccc(-c2cnc(C3CC3)o2)cc1 | 94.1 |  |  |  | growth at 10 µM (NCI/ADR-RES): 94.1%; growth at 10 µM (SK-OV-3): 105%; growth at 10 µM (MOLT-4): 94.1%; growth at 10 µM (COLO 205): 94.4%; growth at 10 µM (SR): 80.3%; growth at 10 µM (TK-10): 99.1%
O=S(=O)(Nc1ccc(C2CC2)cc1)c1ccc(-c2cnc(C3CC3)o2)cc1 | 63.4 |  |  |  | 
CN(c1ccc(Br)cc1)S(=O)(=O)c1ccc(-c2cnc(C3CC3)o2)cc1 | 31.4 |  |  |  | GI50 [2]: 3.92 µM
O=S(=O)(Nc1ccc(C(F)(F)F)cc1)c1ccc(-c2cnc(C3CC3)o2)cc1 | 94.5 |  |  |  | 

SMILES | growth at 10 µM [1] [%] | GI50 (leukaemia cell line) [µM] | TGI (leukaemia cell line) [µM] | CC50 (leukaemia cell line) [µM] | further results
Cc1cc(NS(=O)(=O)c2ccc(-c3cnc(C4CC4)o3)cc2)ccc1Cl | 21.7 | 0.216 | 33.4 | > 100 | IC50 [3]: < 0.08 µM
Cc1cc(Cl)ccc1NS(=O)(=O)c1ccc(-c2cnc(C3CC3)o2)cc1 | 24 | 0.277 | 54.7 | > 100 | 
O=S(=O)(Nc1ccc2ccccc2c1)c1ccc(-c2cnc(C3CC3)o2)cc1 | 28.9 |  |  |  | growth at 10 µM (NCI/ADR-RES): 9.7%; GI50 [2]: 1.84 µM; LC50 (concentration causing 50% net cell kill) [2]: 78.6 µM; growth at 10 µM (SK-OV-3): 32.7%; growth at 10 µM (MOLT-4): 20.2%; growth at 10 µM (COLO 205): 1.5%; growth at 10 µM (SR): 16.5%; growth at 10 µM (TK-10): 61.9%
O=S(=O)(Nc1ccc(I)cc1)c1ccc(-c2cnc(C3CC3)o2)cc1 | 57.3 |  |  |  | 
O=S(=O)(Nc1ccc(I)cc1Cl)c1ccc(-c2cnc(C3CC3)o2)cc1 | 39.5 |  |  |  | 
O=S(=O)(Nc1cccc(Cl)c1)c1ccc(-c2cnc(C3CC3)o2)cc1 | 24.2 | 0.477 | 54.2 | > 100 | 
O=S(=O)(Nc1ccc(Cl)cc1Cl)c1ccc(-c2cnc(C3CC3)o2)cc1 | 25 | 0.481 | 74.5 | > 100 | 
COc1ccc(NS(=O)(=O)c2ccc(-c3cnc(C4CC4)o3)cc2)cc1 | 56.1 |  |  |  | 
O=S(=O)(Nc1ccc(OC(F)F)cc1)c1ccc(-c2cnc(C3CC3)o2)cc1 | 63.1 |  |  |  | 
O=S(=O)(Nc1cc(F)cc(Cl)c1)c1ccc(-c2cnc(C3CC3)o2)cc1 | 30.3 | 1.44 | 77.5 | > 100 | 
O=S(=O)(Nc1ccc(Br)cc1)c1ccc(-c2cnc(C3CC3)o2)cc1 | 26.9 |  |  |  | growth at 10 µM (NCI/ADR-RES): -2.2%; GI50 [2]: 2.75 µM; LC50 (concentration causing 50% net cell kill) [2]: 54 µM; growth at 10 µM (SK-OV-3): 35.5%; growth at 10 µM (MOLT-4): 15.8%; growth at 10 µM (COLO 205): 23.9%; growth at 10 µM (SR): 12.7%; growth at 10 µM (TK-10): 64.1%
O=S(=O)(Nc1ccccc1Cl)c1ccc(-c2cnc(C3CC3)o2)cc1 | 27.4 | 0.429 | 49.7 | > 100 | 
O=S(=O)(Nc1cc(F)cc(F)c1)c1ccc(-c2cnc(C3CC3)o2)cc1 | 35.4 | 2.14 | 80 | > 100 | 
O=S(=O)(Nc1cc(Cl)ccc1Cl)c1ccc(-c2cnc(C3CC3)o2)cc1 | 34.6 | 1.02 | > 100 | > 100 | 
Cc1cc(Cl)cc(NS(=O)(=O)c2ccc(-c3cnc(C4CC4)o3)cc2)c1 | 31.6 | 0.175 | 7.04 | 84.9 | 
O=S(=O)(Nc1ccc(I)c(Cl)c1)c1ccc(-c2cnc(C3CC3)o2)cc1 | 29.8 | 1.01 | 19.6 | > 100 | 
Cc1ccc(NS(=O)(=O)c2ccc(-c3cnc(C4CC4)o3)cc2)cc1C(F)(F)F | 60.5 |  |  |  | 
O=S(=O)(Nc1ccc2c(c1)OC(F)(F)O2)c1ccc(-c2cnc(C3CC3)o2)cc1 | 41.7 |  |  |  | 
Cc1ccc(NS(=O)(=O)c2ccc(-c3cnc(C4CC4)o3)cc2)cc1C | 22.8 | 0.42 | > 100 | > 100 | 
O=S(=O)(Nc1ccc(Cl)c(Cl)c1)c1ccc(-c2cnc(C3CC3)o2)cc1 | 25.3 | 0.416 | 62.1 | > 100 | IC50 [3]: < 0.08 µM
Cc1ccc(NS(=O)(=O)c2ccc(-c3cnc(C4CC4)o3)cc2)cc1 | 33.1 |  |  |  | 
O=S(=O)(Nc1cc(Cl)c(F)c(Cl)c1)c1ccc(-c2cnc(C3CC3)o2)cc1 | 37.1 |  |  |  | 
O=S(=O)(c1ccc(-c2cnc(C3CC3)o2)cc1)N1CCOCC1 | 94.2 |  |  |  | growth at 10 µM (NCI/ADR-RES): 93.5%; growth at 10 µM (SK-OV-3): 112%; growth at 10 µM (MOLT-4): 95.3%; growth at 10 µM (COLO 205): 95%; growth at 10 µM (SR): 91.3%; growth at 10 µM (TK-10): 101%
O=S(=O)(NCC(F)F)c1ccc(-c2cnc(C3CC3)o2)cc1 | 92.2 |  |  |  | growth at 10 µM (NCI/ADR-RES): 92.3%; growth at 10 µM (SK-OV-3): 101%; growth at 10 µM (MOLT-4): 82.5%; growth at 10 µM (COLO 205): 94.5%; growth at 10 µM (SR): 89.3%; growth at 10 µM (TK-10): 104%
O=S(=O)(Nc1ccc(Cl)c(C(F)(F)F)c1)c1ccc(-c2cnc(C3CC3)o2)cc1 | 11.4 |  |  |  | growth at 10 µM (NCI/ADR-RES): 2.9%; GI50 [2]: 0.655 µM; LC50 (concentration causing 50% net cell kill) [2]: 55.4 µM; growth at 10 µM (SK-OV-3): 0.8%; growth at 10 µM (MOLT-4): 5.2%; growth at 10 µM (COLO 205): 2.7%; growth at 10 µM (SR): 3.5%; growth at 10 µM (TK-10): 3%; IC50 [3]: 0.22 µM
O=S(=O)(Nc1ccc(F)cc1)c1ccc(-c2cnc(C3CC3)o2)cc1 | 28.1 |  |  |  | growth at 10 µM (NCI/ADR-RES): -0.9%; growth at 10 µM (SK-OV-3): 39.7%; growth at 10 µM (MOLT-4): 12.7%; growth at 10 µM (COLO 205): 20.2%; growth at 10 µM (SR): 11.6%; growth at 10 µM (TK-10): 32.5%
